{
  "source": "patent US7335663B2",
  "about": "“Heteroaryl compounds which inhibit leukocyte adhesion mediated by α4 integrins” (Elan Pharmaceuticals, Inc., priority 2002, dated 2008)",
  "key": {"[1]": {"assay": "Cassette dosing and serum analysis for determination of oral bioavailability", "format": "in vivo, Sprague Dawley (SD) rats", "conditions": "rats, oral cassette of 6 compounds, total dose 10 mg/kg, plasma samples at 4, 8 and 12 h", "protocol": "The oral bioavailability was screened by dosing rats with a cassette, i.e. mixture of 6 compounds per dosing solution. The cassette included 5 test articles and a standard compound, for a total dose of 10 mg/kg. Each compound/test article was converted to the sodium salt with equimolar 1 N NaOH and dissolved in water at 2 mg/mL. The cassette was prepared by mixing equal volumes of each of the six solutions. The cassette dosing solution was mixed well and then the pH was adjusted to 7.5-9. The dosing solution was prepared the day before the study and stirred overnight at room temperature.\nMale Sprague Dawley (SD) rats from Charles River Laboratories, 6-8 weeks old were used in this screen. Rats were quarantined for at least one day and had continuous access to food and water. On the night before the administration of the cassette, the rats were fasted for approximately 16 h.\nFour SD rats were assigned in each cassette. A single dose of the dosing solution was administered orally to each rat. The dosing volume (5 mL/kg) and time were recorded and rats were fed 2 h after dosing.\nBlood samples were collected via cardiac puncture at the following time points: 4 h, 8 h and 12 h. Immediately prior to blood collection, rats were anesthetized with CO2 gas within 10-20 seconds. After the 12-hour samples were collected, the rats were euthanized via CO2 asphyxiation followed by cervical dislocation.\nBlood samples were kept in heparinized microtainer tubes under sub-ambient temperature (4° C.) before they were processed. Blood samples were centrifuged (10000 rpm for 5 minutes) and plasma samples were removed and stored in a −20° C. freezer until analyzed for drug levels. Drug levels in the plasma were analyzed using the following protocol for direct plasma precipitation.\nThe in vivo plasma samples were prepared in a 1.5 mL 96-well plate, by adding, in order, 100 μL of the test plasma, 150 μL of methanol, followed by vortexing for 10-20 seconds. 150 μL of 0.05 ng/μL of an Internal Standard in acetonitrile were added and vortexed for 30 seconds.\nThe standard curve samples were prepared in a 1.5 mL 96-well plate, by adding, in order, 100 μL of control mouse plasma, followed by 150 μL of methanol and vortexing for 10-20 seconds. 150 μL of 0.05 ng/μL of an Internal Standard in acetonitrile were added and vortexed for 30 seconds. The samples were spiked with 0-200 ng (10 concentrations) of the compound of interest in 50% methanol to obtain a standard curve range of 0.5 ng/mL-2,000 ng/mL. Again, the sample was vortexed for 30 seconds.\nThe samples were then spun for 20-30 minutes at 3000 rpm in an Eppendorf microfuge before 80-90% of supernatant was transferred into a clean 96-well plate. The organic solvent was then evaporated until the samples were dry (under N2 at 40° C./30-60 min (ZymarkTurbovap)).\nThe residue was then dissolved in 200-600 L mobile phase (50% CH3OH/0.1% TFA). LC/MS/MS was then run using a PE-Sciex API-3000 triple quadurpole mass spectrometer (SN0749707), Perkin-Elmer, Series200auto-sampler, and shimadzu 10A pump. Acquisition was done with PE-Sciex Analyst (v1.1) and data analysis and quantification were accomplished using PE-Sciex Analyst (v1.1). A 5-50 μL sample volume was injected onto a reverse phase ThermoHypersil DASH-18 column (Keystone 2.0×20 mm, 5 μm, PN: 8823025-701) using a mobile phase of 25% CH3OH, 0.1% TFA-100% CH3OH, 0.1% TFA. The run time was about 8 minutes at a flow rate of about 300 μL/minutes.\nThe Area Under the Curve (AUC) was calculated using the linear trapezoidal rule from t=0 to the last sampling time tx (see Handbook of Basic Pharmacokinetics, Wolfgang A. Ritschel and Gregory L. Kearns, 5th ed, 1999). AUC^0−+tx=S((Cn+Cn+1)/2))·(tn+1−tn)[(μg/mL)h]\nIn the case of the cassette dosing paradigm, samples at 4, 8 and 12 h post extravascular dosing, the AUC was calculated from t=0 to t=12 h."}, "[2]": {"target": "T1, α4β1 Integrin (Homo sapiens, UniProt P05556+P13612)", "T1 construct": "endogenous in cells; host or cells: Jurkat cells", "T1 sequence (P13612 34-1032)": "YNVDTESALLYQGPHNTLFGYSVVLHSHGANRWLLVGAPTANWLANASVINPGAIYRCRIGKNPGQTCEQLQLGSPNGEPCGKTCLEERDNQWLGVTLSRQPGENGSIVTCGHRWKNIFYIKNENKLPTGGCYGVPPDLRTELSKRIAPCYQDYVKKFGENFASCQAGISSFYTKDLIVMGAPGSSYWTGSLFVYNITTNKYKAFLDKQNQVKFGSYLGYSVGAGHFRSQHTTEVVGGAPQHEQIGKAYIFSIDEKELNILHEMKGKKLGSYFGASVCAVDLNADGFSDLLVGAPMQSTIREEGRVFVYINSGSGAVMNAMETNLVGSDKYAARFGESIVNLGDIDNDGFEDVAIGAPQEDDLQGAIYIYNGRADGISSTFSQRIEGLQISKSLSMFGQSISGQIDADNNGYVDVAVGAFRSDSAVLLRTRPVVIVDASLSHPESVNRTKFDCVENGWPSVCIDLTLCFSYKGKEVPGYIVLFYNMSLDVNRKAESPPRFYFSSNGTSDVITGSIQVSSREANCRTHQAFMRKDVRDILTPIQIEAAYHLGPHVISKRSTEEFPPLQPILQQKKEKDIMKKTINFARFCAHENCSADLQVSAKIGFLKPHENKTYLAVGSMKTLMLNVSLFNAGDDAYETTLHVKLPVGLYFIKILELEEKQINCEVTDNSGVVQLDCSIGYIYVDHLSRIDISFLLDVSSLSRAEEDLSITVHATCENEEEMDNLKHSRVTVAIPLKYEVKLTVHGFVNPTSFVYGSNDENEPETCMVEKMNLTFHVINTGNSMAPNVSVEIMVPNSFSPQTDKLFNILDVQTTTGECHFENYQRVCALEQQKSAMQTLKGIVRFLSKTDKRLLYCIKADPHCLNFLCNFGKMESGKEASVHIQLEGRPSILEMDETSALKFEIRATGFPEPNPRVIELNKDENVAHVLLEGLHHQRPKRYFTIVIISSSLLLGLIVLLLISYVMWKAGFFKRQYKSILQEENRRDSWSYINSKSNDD", "T1 sequence (P05556 21-798)": "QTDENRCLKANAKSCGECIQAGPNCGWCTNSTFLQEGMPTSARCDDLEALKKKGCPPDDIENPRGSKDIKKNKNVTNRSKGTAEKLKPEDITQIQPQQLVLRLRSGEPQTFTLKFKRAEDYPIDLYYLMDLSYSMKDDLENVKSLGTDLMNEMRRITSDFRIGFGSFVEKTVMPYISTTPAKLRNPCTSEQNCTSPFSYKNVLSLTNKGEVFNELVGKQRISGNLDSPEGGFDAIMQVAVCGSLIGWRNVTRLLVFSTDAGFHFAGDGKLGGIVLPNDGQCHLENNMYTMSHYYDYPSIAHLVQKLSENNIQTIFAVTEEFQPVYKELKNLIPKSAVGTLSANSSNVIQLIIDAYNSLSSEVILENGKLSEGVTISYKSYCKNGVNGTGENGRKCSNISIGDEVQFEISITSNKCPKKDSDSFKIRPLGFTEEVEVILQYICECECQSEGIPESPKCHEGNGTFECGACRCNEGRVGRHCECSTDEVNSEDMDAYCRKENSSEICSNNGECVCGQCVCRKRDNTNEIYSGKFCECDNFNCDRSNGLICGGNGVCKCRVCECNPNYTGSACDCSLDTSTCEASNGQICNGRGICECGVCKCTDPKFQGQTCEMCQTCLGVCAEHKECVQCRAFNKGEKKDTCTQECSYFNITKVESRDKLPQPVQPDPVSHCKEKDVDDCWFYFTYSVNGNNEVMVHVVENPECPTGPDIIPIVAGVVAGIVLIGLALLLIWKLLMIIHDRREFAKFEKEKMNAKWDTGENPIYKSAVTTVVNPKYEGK", "assay": "α4β1 Integrin Adhesion Assay: Jurkat cell adhesion to human plasma fibronectin", "format": "cell-based", "conditions": "Jurkat cells", "protocol": "96 well plates (Costar 3590 EIA plates) were coated with human fibronectin (Gibco/BRL, cat #33016-023) at a concentration of 10 μg/mL overnight at 4° C. The plates were then blocked with a solution of bovine serum albumin (BSA; 0.3%) in saline. Jurkat™ cells (maintained in log phase growth) were labeled with Calcein AM according to the manufacturer's instructions, and suspended at a concentration of 2×10^6 cells/mL in Hepes/Saline/BSA. The cells were then exposed to test and control compounds for 30 minutes at room temperature before transfer to individual wells of the fibronectin coated plate. Adhesion was allowed to occur for 35 minutes at 37° C. The wells were then washed by gentle aspiration and pipetting with fresh saline. Fluorescence associated with the remaining adherent cells was quantified using a fluorescence plate reader at EX 485/EM 530.\nCell cultures were prepared by first splitting the stationary phase Jurkat™ cells at 1:10 on day one, and 1:2 on day two to perform assay on day 3. The cells split 1:10 on day one were split 1:4 on day 3 for a day 4 assay.\nThe assay plates were prepared by first making a working solution of Gibco/BRL Human Fibronectin (cat # 33016-023) in PBS++, at 10 μg/mL.\nA Costar 3590 EIA plate was then coated with 50 μL/well for 2 hours at room temperature (thought it can also be left overnight at 4° C). Finally the plate was asperated and blocked with Hepes/Saline Buffer, 100 μL/well, for 1 hour at RT followed by washing three times with 150 μL of PBS++.\nCompound dilutions were accomplished by preparing 1:3 serial dilutions of compounds as follows. For each plate (4 compounds/plate) 600 μL were added to 4 Bio-Rad Titertubes in a Titertube rack. Enough compound was added to each appropriate tube to give a 2× concentration using methods well known in the art. Using Falcon Flexiplates, 100 μL of Hepes/Saline buffer or human serum were added to rows B through G. A multi-channel pipetter set to 180 μL was used to with four tips spaced evenly the pipetter. Each set of four tubes was mixed 5 times and 180 μL, of 2× compound was transferred to the first column of each compound dilution in Row B, leaving Row A empty. 180 μL were added to the other wells in Row A. Serial dilutions were performed down the plate by transferring 50 μL to the next dilution and mixing 5 times, changing tips each time after mixing. Dilutions were stopped at Row F. Row G had no compound present.\nA 20 μg/mL solution in Hepes/Saline buffer or human serum, of 21/6 antibody was the positive control and was set aside in a reagent trough to add to cell suspension plate.\nThe cell staining was accomplished by first harvesting the log-phase Jurkat™ cells by centrifugation in 50 mL tubes (1100 rpm for 5 minutes). The cells were resuspended in 50 mL PBS++, spun, and resuspend in 20 mL PBS++. The cells were stained by adding 20 μL of Calcein AM for 30 minutes R.T. The volume was brought to 50 mL with Hepes/Saline buffer and the cells were counted, spun, and resuspend to 2×10^6 cells/mL in Hepes/Saline buffer or human serum.\nThe compounds were incubated using the following procedure. In a new flexiplate, 65 μL of stained cells were added to Rows B through H. Then 65 μL of 2× compounds were added to the appropriate rows following the plate setup and mixed 3×. 65 μL of 2×-21/6 antibody were added to Row H and mixed 3×. Finally the plate was incubated at room temperature for 30 minutes.\nFibronectin adhesion was measured using a fluorescent plate reader at EX 485/EM 530 after the following work up procedure. After incubation, the cells were mixed 3× and 100 μL were transferred to the Fibronectin coated plates and incubated at 37° C. for about 35 minutes. Each plate was washed, row by row, by gently pipetting 100 μL of R.T. PBS++ down the sides of the wells and turning the plate 90 degrees to aspirate. This procedure was repeated for a total of 3 washes. Each well was filled with 100 μL after washing by pipetting down the side of the well. […]"}},
  "data": [
    {"substance": "2-{2-diethylamino-5-[(chlorobenzenesulfonyl)ethylamino]pyrimidin-4-ylamino}-3-(4-dimethylcarbamoyloxyphenyl)propionic acid [Example 13]", "values": [
      {"measurement": "AUC (average AUC 0-12 h)", "setting": "[1]", "value": "1.5806 (μg/mL)h"},
      {"measurement": "IC50, Cell Adhesion to Human Plasma Fibronectin (With human serum)", "setting": "[2]; with human serum", "value": 0.075, "unit": "µg/mL"},
      {"measurement": "IC50, Cell Adhesion to Human Plasma Fibronectin (Without the human serum)", "setting": "[2]; without human serum", "value": 4, "unit": "ng/mL"}
    ]}
  ]
}
